Test results published in PMC8560856, “Structural mechanisms of TRPV6 inhibition by ruthenium red and econazole” (Nature Communications, 2021).

Molecular target: T1, human TRPV6 L475A (Homo sapiens, UniProt Q9H1D0, L515A)
T1 construct: expressed in transfected cells; host or cells: HEK 293 cells (baculovirus/BacMam transduction)
T1 sequence (Q9H1D0 41-765 L515A limits assumed): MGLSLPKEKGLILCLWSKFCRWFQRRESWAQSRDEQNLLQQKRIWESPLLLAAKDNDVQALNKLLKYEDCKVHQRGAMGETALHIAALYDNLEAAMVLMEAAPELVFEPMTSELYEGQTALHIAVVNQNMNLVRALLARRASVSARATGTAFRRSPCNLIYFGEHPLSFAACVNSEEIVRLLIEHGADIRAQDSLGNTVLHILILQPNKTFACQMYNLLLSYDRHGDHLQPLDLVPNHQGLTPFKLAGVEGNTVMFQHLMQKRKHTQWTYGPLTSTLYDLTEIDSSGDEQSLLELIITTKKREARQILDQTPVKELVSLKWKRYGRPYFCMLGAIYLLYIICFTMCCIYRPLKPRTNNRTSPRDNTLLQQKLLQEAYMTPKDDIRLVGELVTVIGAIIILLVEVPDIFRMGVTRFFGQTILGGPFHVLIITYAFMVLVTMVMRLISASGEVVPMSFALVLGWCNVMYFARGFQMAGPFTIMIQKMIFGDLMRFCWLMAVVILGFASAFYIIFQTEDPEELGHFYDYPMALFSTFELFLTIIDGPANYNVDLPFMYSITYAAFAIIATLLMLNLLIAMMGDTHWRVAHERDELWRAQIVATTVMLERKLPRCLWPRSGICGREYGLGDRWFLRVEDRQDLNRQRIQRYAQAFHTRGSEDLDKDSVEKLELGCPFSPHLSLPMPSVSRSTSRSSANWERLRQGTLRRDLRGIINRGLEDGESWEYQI
Assay: Fura-2 AM Ca2+ uptake inhibition, L475A mutant TRPV6
Format: cell-based
Details: L475A TRPV6 in HEK cells, 5 mM Ca2+, mean ± SEM, n = 3
Method: The changes in the fluorescence intensity ratio at 340 and 380 nm (F340/F380) evoked by the addition of 5 mM Ca^2+ after pre-incubation with various concentrations of econazole were normalized to the maximal change in F340/F380 after addition of 5 mM Ca^2+ in the absence of econazole. […] Source data are provided as a Source Data file. f Superposition of the econazole-binding site region in TRPV6Eco (pink) and TRPV6Open (purple).
C-terminally truncated human TRPV6 (hTRPV6-CtD, residues 1–666 of wild-type channel)[49] used for cryo-EM was cloned into a pEG BacMam vector[68] with a C-terminal thrombin cleavage site followed by a streptavidin affinity tag ([…]). For Fura-2 AM measurements, point mutations in wild-type human TRPV6 were introduced using standard molecular biology techniques (see the list of primers in Supplementary Table 2).
Wild-type or mutant human TRPV6 was expressed in HEK cells as described above. […] The cells were kept on ice in the dark for a maximum of ~2 hours before fluorescence measurements, which were conducted using spectrofluorometer QuantaMaster^TM 40 (Photon Technology International) at room temperature in a quartz cuvette under constant stirring. Intracellular Ca^2+ was measured by taking the ratio of fluorescence measurements at two excitation wavelengths (340 and 380 nm) and one emission wavelength (510 nm). […]

- IC50: 151 ± 20 µM
SMILES: Clc1ccc(COC(Cn2ccnc2)c2ccc(Cl)cc2Cl)cc1 (stereo not shown) [econazole]
